Test results published in article PMC7074905, “Multivalent Lactose–Ferrocene Conjugates Based on Poly (Amido Amine) Dendrimers and Gold Nanoparticles as Electrochemical Probes for Sensing Galectin-3” (Nanomaterials, 2020).

Target: T1, Human galectin-3 (Gal-3) (Homo sapiens, UniProt P17931)
T1 construct: gene LGALS3; mainly monomeric in solution
Test: isothermal titration calorimetry
Type: binding
Details: 20 mM phosphate pH 7.2, 150 mM NaCl, 25 °C; equal and independent sites model, n = 1.00 buffer and model; tetravalent ligand, n = 0.19 ± 0.05, cross-linking; read-out: K.10^-4 (M^-1)
Text: isothermal titration calorimetry on Human galectin-3 (Gal-3)

T1 sequence (P17931 2-250): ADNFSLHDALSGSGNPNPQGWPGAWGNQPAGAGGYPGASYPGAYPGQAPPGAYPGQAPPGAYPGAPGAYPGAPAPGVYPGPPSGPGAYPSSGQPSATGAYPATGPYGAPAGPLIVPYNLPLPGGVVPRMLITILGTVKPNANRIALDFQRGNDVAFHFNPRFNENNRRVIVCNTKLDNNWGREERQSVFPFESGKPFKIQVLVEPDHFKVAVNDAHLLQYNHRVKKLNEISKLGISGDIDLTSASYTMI

Question: For “G0-PAMAM-(COCH2CH2TACH2FcCH2TACH2Lac)4 [compound 12]”, which Kd is on record?
Answer: Its Kd is 3.14 µM.
